{
  "source": "PubChem BioAssay AID2060600",
  "about": "(Molecular Pharmacology Branch, DTP, NCI, 2025)",
  "system": "996289-038-R-J1-PDC complex spheroid viability",
  "assay": "Anticancer human tumor 996289-038-R-J1-PDC patient-derived colon adenocarcinoma cell line growth inhibition [CLK]",
  "details": "for pIC50: curve of first compound; for viability, T/C: stronger effect = lower value",
  "summary_of_the_method": "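Multi-cell-type spheroids combined patient-derived tumor cells with HUVEC endothelial cells and human mesenchymal stem cells. Paired agents were dosed in half-log steps down from about clinical Cmax, or from 10 microM where Cmax was unknown.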",
  "note": "pIC50: −log10 of the molar value.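 Note: spheroids exposed to the agents for 7 days before readout.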",
  "data": [
    {"smiles": "CC1COCCN1c1cc(C2(S(C)(=N)=O)CC2)nc(-c2ccnc3[nH]ccc23)n1", "note": "(centres undefined) + CN1CCN(c2cc(C(=O)Nc3cc4cc(-c5cnn(C)c5)ccc4cn3)ccn2)CC1", "values": [
      {"measurement": "pIC50", "setting": "second compound 0.0316 µM", "value": "< 5.00"},
      {"measurement": "pIC50", "setting": "second compound 0.1 µM", "value": "< 5.00"},
      {"measurement": "pIC50", "setting": "second compound 0.316 µM", "value": "< 5.00"},
      {"measurement": "pIC50", "setting": "second compound 1 µM", "value": "> 7.50"},
      {"measurement": "pIC50", "setting": "second compound 3.16 µM", "value": "> 7.50"},
      {"measurement": "pIC50", "setting": "second compound 10 µM", "value": "> 7.50"},
      {"measurement": "viability, T/C", "setting": "second compound 0.0316 µM, first compound 0.0316 µM", "value": 103, "unit": "%"},
      {"measurement": "viability, T/C", "setting": "second compound 0.0316 µM, first compound 0.1 µM", "value": 104, "unit": "%"},
      {"measurement": "viability, T/C", "setting": "second compound 0.0316 µM, first compound 0.316 µM", "value": 98.1, "unit": "%"},
      {"measurement": "viability, T/C", "setting": "second compound 0.0316 µM, first compound 1 µM", "value": 103, "unit": "%"},
      {"measurement": "viability, T/C", "setting": "second compound 0.0316 µM, first compound 3.16 µM", "value": 99.2, "unit": "%"},
      {"measurement": "viability, T/C", "setting": "second compound 0.0316 µM, first compound 10 µM", "value": 80.8, "unit": "%"},
      {"measurement": "viability, T/C", "setting": "second compound 0.1 µM, first compound 0.0316 µM", "value": 102, "unit": "%"},
      {"measurement": "viability, T/C", "setting": "second compound 0.1 µM, first compound 0.1 µM", "value": 91.3, "unit": "%"},
      {"measurement": "viability, T/C", "setting": "second compound 0.1 µM, first compound 0.316 µM", "value": 83.1, "unit": "%"},
      {"measurement": "viability, T/C", "setting": "second compound 0.1 µM, first compound 1 µM", "value": 91.7, "unit": "%"},
      {"measurement": "viability, T/C", "setting": "second compound 0.1 µM, first compound 3.16 µM", "value": 90.9, "unit": "%"},
      {"measurement": "viability, T/C", "setting": "second compound 0.1 µM, first compound 10 µM", "value": 71, "unit": "%"},
      {"measurement": "viability, T/C", "setting": "second compound 0.316 µM, first compound 0.0316 µM", "value": 71.4, "unit": "%"},
      {"measurement": "viability, T/C", "setting": "second compound 0.316 µM, first compound 0.1 µM", "value": 70.1, "unit": "%"},
      {"measurement": "viability, T/C", "setting": "second compound 0.316 µM, first compound 0.316 µM", "value": 69.3, "unit": "%"},
      {"measurement": "viability, T/C", "setting": "second compound 0.316 µM, first compound 1 µM", "value": 62.7, "unit": "%"},
      {"measurement": "viability, T/C", "setting": "second compound 0.316 µM, first compound 3.16 µM", "value": 66, "unit": "%"},
      {"measurement": "viability, T/C", "setting": "second compound 0.316 µM, first compound 10 µM", "value": 49.9, "unit": "%"},
      {"measurement": "viability, T/C", "setting": "second compound 1 µM, first compound 0.0316 µM", "value": 6.36, "unit": "%"},
      {"measurement": "viability, T/C", "setting": "second compound 1 µM, first compound 0.1 µM", "value": 8.03, "unit": "%"},
      {"measurement": "viability, T/C", "setting": "second compound 1 µM, first compound 0.316 µM", "value": 5.79, "unit": "%"},
      {"measurement": "viability, T/C", "setting": "second compound 1 µM, first compound 1 µM", "value": 5.93, "unit": "%"},
      {"measurement": "viability, T/C", "setting": "second compound 1 µM, first compound 3.16 µM", "value": 5.27, "unit": "%"},
      {"measurement": "viability, T/C", "setting": "second compound 1 µM, first compound 10 µM", "value": 4.07, "unit": "%"},
      {"measurement": "viability, T/C", "setting": "second compound 3.16 µM, first compound 0.0316 µM", "value": 1.36, "unit": "%"},
      {"measurement": "viability, T/C", "setting": "second compound 3.16 µM, first compound 0.1 µM", "value": 1.15, "unit": "%"},
      {"measurement": "viability, T/C", "setting": "second compound 3.16 µM, first compound 0.316 µM", "value": 1.45, "unit": "%"},
      {"measurement": "viability, T/C", "setting": "second compound 3.16 µM, first compound 1 µM", "value": 0.91, "unit": "%"},
      {"measurement": "viability, T/C", "setting": "second compound 3.16 µM, first compound 3.16 µM", "value": 1.03, "unit": "%"},
      {"measurement": "viability, T/C", "setting": "second compound 3.16 µM, first compound 10 µM", "value": 2.2, "unit": "%"},
      {"measurement": "viability, T/C", "setting": "second compound 10 µM, first compound 0.0316 µM", "value": 1.62, "unit": "%"},
      {"measurement": "viability, T/C", "setting": "second compound 10 µM, first compound 0.1 µM", "value": 0.34, "unit": "%"},
      {"measurement": "viability, T/C", "setting": "second compound 10 µM, first compound 0.316 µM", "value": 0.65, "unit": "%"},
      {"measurement": "viability, T/C", "setting": "second compound 10 µM, first compound 1 µM", "value": 0.65, "unit": "%"},
      {"measurement": "viability, T/C", "setting": "second compound 10 µM, first compound 3.16 µM", "value": 4.11, "unit": "%"},
      {"measurement": "viability, T/C", "setting": "second compound 10 µM, first compound 10 µM", "value": 0.52, "unit": "%"}
    ]},
    {"smiles": "NC(=O)C(=Cn1cnc(-c2cc(C(F)(F)F)cc(C(F)(F)F)c2)n1)c1cncnc1", "note": "+ CN1CCN(c2cc(C(=O)Nc3cc4cc(-c5cnn(C)c5)ccc4cn3)ccn2)CC1", "values": [
      {"measurement": "pIC50", "setting": "second compound 0.0316 µM", "value": 7.27},
      {"measurement": "pIC50", "setting": "second compound 0.1 µM", "value": 7.53},
      {"measurement": "pIC50", "setting": "second compound 0.316 µM", "value": "> 8.02"},
      {"measurement": "pIC50", "setting": "second compound 1 µM", "value": "> 8.02"},
      {"measurement": "pIC50", "setting": "second compound 3.16 µM", "value": "> 8.02"},
      {"measurement": "pIC50", "setting": "second compound 10 µM", "value": "> 8.02"},
      {"measurement": "viability, T/C", "setting": "second compound 0.0316 µM, first compound 0.00949 µM", "value": 73.6, "unit": "%"},
      {"measurement": "viability, T/C", "setting": "second compound 0.0316 µM, first compound 0.03 µM", "value": 64, "unit": "%"},
      {"measurement": "viability, T/C", "setting": "second compound 0.0316 µM, first compound 0.0949 µM", "value": 36.1, "unit": "%"},
      {"measurement": "viability, T/C", "setting": "second compound 0.0316 µM, first compound 0.3 µM", "value": 18.6, "unit": "%"},
      {"measurement": "viability, T/C", "setting": "second compound 0.0316 µM, first compound 0.949 µM", "value": 10.6, "unit": "%"},
      {"measurement": "viability, T/C", "setting": "second compound 0.0316 µM, first compound 3 µM", "value": 11.7, "unit": "%"},
      {"measurement": "viability, T/C", "setting": "second compound 0.1 µM, first compound 0.00949 µM", "value": 68, "unit": "%"},
      {"measurement": "viability, T/C", "setting": "second compound 0.1 µM, first compound 0.03 µM", "value": 49.7, "unit": "%"},
      {"measurement": "viability, T/C", "setting": "second compound 0.1 µM, first compound 0.0949 µM", "value": 24.9, "unit": "%"},
      {"measurement": "viability, T/C", "setting": "second compound 0.1 µM, first compound 0.3 µM", "value": 11.1, "unit": "%"},
      {"measurement": "viability, T/C", "setting": "second compound 0.1 µM, first compound 0.949 µM", "value": 4.64, "unit": "%"},
      {"measurement": "viability, T/C", "setting": "second compound 0.1 µM, first compound 3 µM", "value": 5.12, "unit": "%"},
      {"measurement": "viability, T/C", "setting": "second compound 0.316 µM, first compound 0.00949 µM", "value": 33.9, "unit": "%"},
      {"measurement": "viability, T/C", "setting": "second compound 0.316 µM, first compound 0.03 µM", "value": 19.1, "unit": "%"},
      {"measurement": "viability, T/C", "setting": "second compound 0.316 µM, first compound 0.0949 µM", "value": 2.74, "unit": "%"},
      {"measurement": "viability, T/C", "setting": "second compound 0.316 µM, first compound 0.3 µM", "value": 0.87, "unit": "%"},
      {"measurement": "viability, T/C", "setting": "second compound 0.316 µM, first compound 0.949 µM", "value": 1.43, "unit": "%"},
      {"measurement": "viability, T/C", "setting": "second compound 0.316 µM, first compound 3 µM", "value": 1.38, "unit": "%"},
      {"measurement": "viability, T/C", "setting": "second compound 1 µM, first compound 0.00949 µM", "value": 0.93, "unit": "%"},
      {"measurement": "viability, T/C", "setting": "second compound 1 µM, first compound 0.03 µM", "value": 0.76, "unit": "%"},
      {"measurement": "viability, T/C", "setting": "second compound 1 µM, first compound 0.0949 µM", "value": 0.81, "unit": "%"},
      {"measurement": "viability, T/C", "setting": "second compound 1 µM, first compound 0.3 µM", "value": 1.31, "unit": "%"},
      {"measurement": "viability, T/C", "setting": "second compound 1 µM, first compound 0.949 µM", "value": 1.15, "unit": "%"},
      {"measurement": "viability, T/C", "setting": "second compound 1 µM, first compound 3 µM", "value": 2.01, "unit": "%"},
      {"measurement": "viability, T/C", "setting": "second compound 3.16 µM, first compound 0.00949 µM", "value": 1.17, "unit": "%"},
      {"measurement": "viability, T/C", "setting": "second compound 3.16 µM, first compound 0.03 µM", "value": 0.72, "unit": "%"},
      {"measurement": "viability, T/C", "setting": "second compound 3.16 µM, first compound 0.0949 µM", "value": 1.2, "unit": "%"},
      {"measurement": "viability, T/C", "setting": "second compound 3.16 µM, first compound 0.3 µM", "value": 1.12, "unit": "%"},
      {"measurement": "viability, T/C", "setting": "second compound 3.16 µM, first compound 0.949 µM", "value": 1.5, "unit": "%"},
      {"measurement": "viability, T/C", "setting": "second compound 3.16 µM, first compound 3 µM", "value": 2.18, "unit": "%"},
      {"measurement": "viability, T/C", "setting": "second compound 10 µM, first compound 0.00949 µM", "value": 0.52, "unit": "%"},
      {"measurement": "viability, T/C", "setting": "second compound 10 µM, first compound 0.03 µM", "value": 0.5, "unit": "%"},
      {"measurement": "viability, T/C", "setting": "second compound 10 µM, first compound 0.0949 µM", "value": 0.74, "unit": "%"},
      {"measurement": "viability, T/C", "setting": "second compound 10 µM, first compound 0.3 µM", "value": 0.52, "unit": "%"},
      {"measurement": "viability, T/C", "setting": "second compound 10 µM, first compound 0.949 µM", "value": 0.45, "unit": "%"},
      {"measurement": "viability, T/C", "setting": "second compound 10 µM, first compound 3 µM", "value": 1.52, "unit": "%"}
    ]}
  ]
}
